Assay results as given in EP1029544A1, “INTRA-CANCER-CELL NUCLEASE ACTIVATOR” (Nippon Shinyaku Co., Ltd., priority 1997, dated 1999).
Converted amounts (≈) assume the structure as drawn.

How the values were obtained:
Experiment in all cases: Growth inhibitory effect (in vitro), MTT method
Type in all cases: cell-based
A-204 = details: Homo sapiens, A204, 72 h; A-204, Rhabdomyosarcoma; 3 days
Protocol: (§1) A 96-well plate was seeded with cells at a density of 10^4 cells/well. On the following day, the activator of Example 4 or adriamycin was added and the cultivation was continued. After 3 days the viable cell count was determined by the MTT method.

A431 = details: Homo sapiens, A-431, 72 h; A431, Epidemoid carcinoma; 3 days
Protocol: as §1

A546 = details: 72 h; A546, Lung carcinoma; 3 days
Protocol: as §1

A673 = details: Homo sapiens, 72 h; A673, Rhabdomyosarcoma; 3 days
Protocol: as §1

AsPC-1 = details: Homo sapiens, ASPC1, 72 h; AsPC-1, Pancreatic adenocarcinoma; 3 days
Protocol: as §1

BALB/c CL.7 = details: 72 h; BALB/c CL.7, Mouse normal fibroblast (non-cancer); 3 days
Protocol: as §1

BALB/c3T3 cloneA31 = details: 72 h; BALB/c3T3 cloneA31, Mouse embryonic cell (non-cancer); 3 days
Protocol: as §1

BHK-21 = details: Mesocricetus auratus, 72 h; BHK-21, Hamster kidney cell (non-cancer); 3 days
Protocol: as §1

BNL CL.2 = details: 72 h; BNL CL.2, Mouse normal liver cell (non-cancer); 3 days
Protocol: as §1

CALU6 = details: Homo sapiens, Calu-6, 72 h; CALU6, Lung anaplastic carcinoma; 3 days
Protocol: as §1

CHO-K1 = details: Cricetulus griseus, 72 h; CHO-K1, Chinese hamster ovary cell (non-cancer); 3 days
Protocol: as §1

COLO320DM = details: Homo sapiens, COLO 320DM, 72 h, Colon adenocarcinoma, 3 days
Protocol: as §1

Clone9 = details: 72 h; Clone9, Rat normal liver cell (non-cancer); 3 days
Protocol: as §1

DU145 = details: Homo sapiens, DU-145, 72 h; DU145, Prostate carcinoma; 3 days
Protocol: as §1

G-361 = details: Homo sapiens, 72 h; G-361, Malignant melanoma; 3 days
Protocol: as §1

HCC-T = details: 72 h, Liver cancer, 3 days
Protocol: as §1

HT1376 = details: Homo sapiens, HT-1376, 72 h; HT1376, Bladder carcinoma; 3 days
Protocol: as §1

HT144 = details: Homo sapiens, HT-144, 72 h; HT144, Malignant melanoma; 3 days
Protocol: as §1

HeLaS3 = details: Homo sapiens, HeLa S3, 72 h; HeLaS3, Cervix epitheloid carcinoma; 3 days
Protocol: as §1

Hs0578T = details: 72 h, Breast ductal carcinoma, 3 days
Protocol: as §1

KB = details: Homo sapiens, 72 h, Oral epidemiod carcinoma, 3 days
Protocol: as §1

KM12-HX = details: Homo sapiens, 72 h, Colon cancer, 3 days
Protocol: as §1

LoVo = details: Homo sapiens, 72 h, Colon adenocarcinoma, 3 days
Protocol: as §1

Ls174T = details: Homo sapiens, 72 h, Colon adenocarcinoma, 3 days
Protocol: as §1

MDA-MB-134VI = details: Homo sapiens, 72 h, Breast ductal carcinoma, 3 days
Protocol: as §1

MDA-MB-453 = details: Homo sapiens, 72 h; MDA-MB-453, Breast carcinoma; 3 days
Protocol: as §1

MDA-MB-468 = details: Homo sapiens, 72 h; MDA-MB-468, Breast adenocarcinoma; 3 days
Protocol: as §1

Malme 3M = details: Homo sapiens, 72 h, Malignant melanoma, 3 days
Protocol: as §1

McA-8994 = details: 72 h; McA-8994, Rat hepatoma; 3 days
Protocol: as §1

NC65 = details: 72 h; NC65, Pancreatic cancer; 3 days
Protocol: as §1

NCTCclone1469 = details: 72 h; NCTCclone1469, Mouse normal liver cell (non-cancer); 3 days
Protocol: as §1

NIH/3T3 = details: NIH3T3, 72 h; NIH/3T3, Mouse embryonic cell (non-cancer); 3 days
Protocol: as §1

NRK-49F = details: 72 h, Rat normal kidney fibroblast (non-cancer), 3 days
Protocol: as §1

OVCAR3 = details: Homo sapiens, OVCAR-3, 72 h; OVCAR3, Ovary adenocarcinoma; 3 days
Protocol: as §1

PC-3 = details: Homo sapiens, 72 h; PC-3, Prostate adenocarcinoma; 3 days
Protocol: as §1

PLC/PRF/5 = details: Homo sapiens, 72 h; PLC/PRF/5, Hepatoma; 3 days
Protocol: as §1

RD = details: Homo sapiens, 72 h, Rhabdomyosarcoma, 3 days
Protocol: as §1

RT4 = details: Homo sapiens, RT-4, 72 h; RT4, Bladder papillima; 3 days
Protocol: as §1

SAOS2 = details: Homo sapiens, SAOS-2, 72 h; SAOS2, Osteogenic sarcoma; 3 days
Protocol: as §1

SK-BR-3 = details: Homo sapiens, 72 h; SK-BR-3, Breast adenocarcinoma; 3 days
Protocol: as §1

SK-HEP-1 = details: Homo sapiens, SK-HEP1, 72 h; SK-HEP-1, Liver adenocarcinoma; 3 days
Protocol: as §1

SK-OV-3 = details: Homo sapiens, 72 h; SK-OV-3, Ovary adenocarcinoma; 3 days
Protocol: as §1

SW480 = details: Homo sapiens, 72 h; SW480, Colon adenocarcinoma; 3 days
Protocol: as §1

Swiss/3T3 = details: 72 h; Swiss/3T3, Mouse embryonic cell (non-cancer); 3 days
Protocol: as §1

T47D = details: Homo sapiens, 72 h, Breast ductal carchoma, 3 days
Protocol: as §1

TSU-PR-1 = details: Homo sapiens, TSU-Pr1, 72 h; TSU-PR-1, Prostate cancer; 3 days
Protocol: as §1

WM-266-4 = details: Homo sapiens, 72 h; WM-266-4, Melanoma; 3 days
Protocol: as §1

WRL68 = details: 72 h; WRL68, Human embryo liver cell (non-cancer); 3 days
Protocol: as §1

COc1cccc2c1C(=O)c1c(O)c3c(c(O)c1C2=O)C[C@@](O)(C(=O)CO)C[C@@H]3O[C@H]1C[C@H](N)[C@H](O)[C@H](C)O1 [Adriamycin]
IC50 (A-204): 0.076 µg/mL (≈ 0.14 µM) | IC50 (A431): 0.052 µg/mL (≈ 0.0957 µM) | IC50 (A546): 0.831 µg/mL (≈ 1.53 µM) | IC50 (A673): 0.104 µg/mL (≈ 0.191 µM) | IC50 (AsPC-1): 0.8 µg/mL (≈ 1.47 µM) | IC50 (BALB/c CL.7): 0.117 µg/mL (≈ 0.215 µM) | IC50 (BALB/c3T3 cloneA31): 0.427 µg/mL (≈ 0.786 µM) | IC50 (BHK-21): 0.047 µg/mL (≈ 0.0865 µM) | IC50 (BNL CL.2): 0.398 µg/mL (≈ 0.732 µM) | IC50 (CALU6): 0.282 µg/mL (≈ 0.519 µM) | IC50 (CHO-K1): 0.02 µg/mL (≈ 0.0368 µM) | IC50 (COLO320DM): 0.838 µg/mL (≈ 1.54 µM) | IC50 (Clone9): 0.228 µg/mL (≈ 0.419 µM) | IC50 (DU145): 0.236 µg/mL (≈ 0.434 µM) | IC50 (G-361): 0.146 µg/mL (≈ 0.269 µM) | IC50 (HCC-T): 0.076 µg/mL (≈ 0.14 µM) | IC50 (HT1376): 0.217 µg/mL (≈ 0.399 µM) | IC50 (HT144): 0.219 µg/mL (≈ 0.403 µM) | IC50 (HeLaS3): 0.049 µg/mL (≈ 0.0902 µM) | IC50 (Hs0578T): 0.76 µg/mL (≈ 1.4 µM) | IC50 (KB): 0.025 µg/mL (≈ 0.046 µM) | IC50 (KM12-HX): 0.13 µg/mL (≈ 0.239 µM) | IC50 (LoVo): 0.065 µg/mL (≈ 0.12 µM) | IC50 (Ls174T): 0.096 µg/mL (≈ 0.177 µM) | IC50 (MDA-MB-134VI): 0.081 µg/mL (≈ 0.149 µM) | IC50 (MDA-MB-453): 0.143 µg/mL (≈ 0.263 µM) | IC50 (MDA-MB-468): 0.057 µg/mL (≈ 0.105 µM) | IC50 (Malme 3M): 0.114 µg/mL (≈ 0.21 µM) | IC50 (McA-8994): > 1 µg/mL | IC50 (NC65): 0.073 µg/mL (≈ 0.134 µM) | IC50 (NCTCclone1469): 0.101 µg/mL (≈ 0.186 µM) | IC50 (NIH/3T3): 0.102 µg/mL (≈ 0.188 µM) | IC50 (NRK-49F): > 1 µg/mL | IC50 (OVCAR3): > 1 µg/mL | IC50 (PC-3): > 1 µg/mL | IC50 (PLC/PRF/5): 0.042 µg/mL (≈ 0.0773 µM) | IC50 (RD): 0.208 µg/mL (≈ 0.383 µM) | IC50 (RT4): 0.058 µg/mL (≈ 0.107 µM) | IC50 (SAOS2): 0.075 µg/mL (≈ 0.138 µM) | IC50 (SK-BR-3): 0.078 µg/mL (≈ 0.144 µM) | IC50 (SK-HEP-1): 0.302 µg/mL (≈ 0.556 µM) | IC50 (SK-OV-3): 0.252 µg/mL (≈ 0.464 µM) | IC50 (SW480): 0.097 µg/mL (≈ 0.178 µM) | IC50 (Swiss/3T3): 0.903 µg/mL (≈ 1.66 µM) | IC50 (T47D): 0.114 µg/mL (≈ 0.21 µM) | IC50 (TSU-PR-1): 0.572 µg/mL (≈ 1.05 µM) | IC50 (WM-266-4): 0.206 µg/mL (≈ 0.379 µM) | IC50 (WRL68): 0.283 µg/mL (≈ 0.521 µM)
